Assay results as given in ChEMBL document CHEMBL4342418, “1,2,3-Triazole-containing hybrids as potential anticancer agents: Current developments, action mechanisms and structure-activity relationships” (Eur J Med Chem, 2019).
pIC50: −log10 of the molar value. Values belong to the compound of their own block, whether it stands above or below them.

Legend:
[1] = system: MDA-MB-231; experiment: cells; details: Homo sapiens
Description: Antiproliferative activity against human MDA-MB-231 cells assessed as reduction in cell viability preincubated for 24 hrs under hypoxia condition further incubated for 72 hrs under normaxic condition by MTT assay

[2] = system: MCF7; experiment: Antiproliferative activity against human MCF7 cells assessed as reduction in cell viability after 48 hrs by MTT assay; format: functional, cell-based; details: MCF7, 48 h
[3] = system: MDA-MB-231; experiment: Antiproliferative activity against human MDA-MB-231 cells assessed as reduction in cell viability after 24 hrs by MTT assay; format: functional, cell-based; details: MDA-MB-231, 24 h
[4] = system: A-431; experiment: Antiproliferative activity against human A431 cells assessed as reduction in cell viability after 24 hrs by MTT assay; format: functional, cell-based; details: A-431, 24 h
[5] = system: SiHa; experiment: Growth inhibition in human SiHa cells after 48 hrs by SRB assay; format: functional
[6] = system: U-87 MG; experiment: Antiproliferative activity against human U87 cells assessed as reduction in cell viability after 72 hrs by MTT assay; format: functional, cell-based, U-87MG ATCC
[7] = system: A549; experiment: cells; format: functional, cell-based; details: Homo sapiens
Description: Antiproliferative activity against human A549 cells by MTT assay

[8] = system: PANC-1; experiment: Growth inhibition in human PANC1 cells after 48 hrs by SRB assay; format: functional; details: PANC-1, 48 h
[9] = system: K562; experiment: Antiproliferative activity against human K562 cells assessed as reduction in cell viability after 24 hrs by MTT assay; format: functional, cell-based; details: K562, 24 h
[10] = system: IMR-32; experiment: Antiproliferative activity against human IMR32 cells by SRB assay; format: functional
[11] = system: HT-29; experiment: Antiproliferative activity against human HT-29 cells assessed as reduction in cell viability after 72 hrs by MTT assay; format: functional, cell-based; details: HT-29, 72 h
[12] = system: MCF7; experiment: Antiproliferative activity against human MCF7 cells assessed as reduction in cell viability after 72 hrs by MTT assay; format: functional, cell-based; details: MCF7, 72 h
[13] = system: MOLT-4; experiment: Antiproliferative activity against human MOLT4 cells assessed as reduction in cell viability after 72 hrs by MTT assay; format: functional, cell-based; details: MOLT-4, 72 h
[14] = system: IMR-32; experiment: Growth inhibition in human IMR32 cells after 48 hrs by SRB assay; format: functional; details: IMR-32, 48 h
[15] = system: MDA-MB-231; experiment: Antiproliferative activity against human MDA-MB-231 cells by SRB assay; format: functional
[16] = system: PC-3; experiment: Antiproliferative activity against human PC3 cells assessed as reduction in cell viability after 24 hrs by MTT assay; format: functional, cell-based; details: PC-3, 24 h
[17] = system: HeLa; experiment: Antiproliferative activity against human HeLa cells by SRB assay; format: functional, cell-based
[18] = system: Caco-2; experiment: Antiproliferative activity against human Caco2 cells assessed as reduction in cell viability after 48 hrs by MTT assay; format: functional, cell-based; details: Caco-2, 48 h
[19] = Antiproliferative activity against human MiaPaCa cells by SRB assay; format: functional; details: MIA PaCa-2
[20] = system: DU-145; experiment: Growth inhibition in human DU145 cells after 48 hrs by SRB assay; format: functional; details: DU-145, 48 h
[21] = system: T47D; experiment: Antiproliferative activity against human T47D cells assessed as reduction in cell viability after 48 hrs by MTT assay; format: functional, cell-based
[22] = system: MDA-MB-231; experiment: Antiproliferative activity against human MDA-MB-231 cells assessed as reduction in cell viability after 72 hrs by MTT assay; format: functional, cell-based; details: MDA-MB-231, 72 h
[23] = system: HeLa; experiment: Antiproliferative activity against human HeLa cells assessed as reduction in cell viability after 48 hrs by MTT assay; format: functional, cell-based
[24] = system: COLO 205; experiment: Antiproliferative activity against human COLO205 cells assessed as reduction in cell viability after 24 hrs by MTT assay; format: functional, cell-based; details: COLO 205, 24 h
[25] = system: HCT-116; experiment: Antiproliferative activity against human HCT116 cells assessed as reduction in cell viability after 48 hrs by MTT assay; format: functional, cell-based; details: HCT-116, 48 h
[26] = system: A549; experiment: Growth inhibition in human A549 cells after 48 hrs by SRB assay; format: functional; details: A549, 48 h
[27] = system: IMR-32; experiment: Antiproliferative activity against human IMR32 cells assessed as reduction in cell viability after 72 hrs by MTT assay; format: functional, cell-based; details: IMR-32, 72 h
[28] = system: A549; experiment: Antiproliferative activity against human A549 cells assessed as reduction in cell viability after 24 hrs by MTT assay; format: functional, cell-based; details: A549, 24 h
[29] = system: MDA-MB-231; experiment: Antiproliferative activity against human MDA-MB-231 cells assessed as reduction in cell viability after 48 hrs by MTT assay; format: functional, cell-based; details: MDA-MB-231, 48 h
[30] = system: MDA-MB-231; experiment: Growth inhibition in human MDA-MB-231 cells after 48 hrs by SRB assay; format: functional; details: MDA-MB-231, 48 h
[31] = system: HeLa; experiment: Antiproliferative activity against human HeLa cells assessed as reduction in cell viability after 72 hrs by MTT assay; format: functional, cell-based
[32] = Antiproliferative activity against human […] cells assessed as reduction in cell viability after 72 hrs by MTT assay; format: functional, cell-based
[33] = system: T47D; experiment: Antiproliferative activity against human T47D cells assessed as reduction in cell viability after 72 hrs by MTT assay; format: functional, cell-based
[34] = system: A2780; experiment: Antiproliferative activity against human A2780 cells assessed as reduction in cell viability after 72 hrs by MTT assay; format: functional, cell-based; details: A2780, 72 h
[35] = system: A-431; experiment: Antiproliferative activity against human A431 cells assessed as reduction in cell viability after 72 hrs by MTT assay; format: functional, cell-based; details: A-431, 72 h
[36] = system: Erythrocyte; experiment: Cytotoxicity against human RBC cells assessed as reduction in cell viability after 24 hrs by MTT assay; format: cell-based
[37] = system: HCT-116; experiment: Antiproliferative activity against human HCT116 cells assessed as reduction in cell viability after 24 hrs by MTT assay; format: functional, cell-based; details: HCT-116, 24 h
[38] = system: PBMC; experiment: Cytotoxicity against human PBMC cells assessed as reduction in cell viability after 24 hrs by MTT assay; format: cell-based
[39] = system: HepG2; experiment: Antiproliferative activity against human HepG2 cells assessed as reduction in cell viability after 24 hrs by MTT assay; format: functional, cell-based; details: HepG2, 24 h
[40] = Cytotoxicity against human HEK cells assessed as reduction in cell viability after 24 hrs by MTT assay; format: cell-based; details: HEK293, 24 h
[41] = system: MCF7; experiment: Antiproliferative activity against human MCF7 cells assessed as reduction in cell viability after 24 hrs by MTT assay; format: functional, cell-based; details: MCF7, 24 h
[42] = system: K562-Lucena 1; experiment: Antiproliferative activity against human K562-Lucena 1 cells assessed as reduction in cell viability after 24 hrs by MTT assay; format: functional, cell-based; details: K562-Lucena 1, 24 h
[43] = system: HL-60; experiment: Antiproliferative activity against human HL60 cells assessed as reduction in cell viability after 24 hrs by MTT assay; format: functional, cell-based; details: HL-60, 24 h

Compound: COc1cccc2c1C(=O)c1c(O)c3c(c(O)c1C2=O)C[C@@](O)(C(=O)CO)C[C@@H]3O[C@H]1C[C@H](N)[C@H](O)[C@H](C)O1 [DOXORUBICIN]
pIC50 [1]: 6.22
pIC50 [2]: 5.00 to 6.00
pIC50 [3]: 4.92 to 5.84
pIC50 [4]: 4.92 to 5.84
GI50 [5]: < 10 nM
pIC50 [6]: 6.37 to 7.10
pIC50 [7]: 5.48
GI50 [8]: < 10 nM
pIC50 [9]: 4.92 to 5.84
GI50 [10]: 23 to 97 nM
pIC50 [11]: 6.47 to 7.82
pIC50 [12]: 6.47 to 7.82
pIC50 [13]: 6.47 to 7.82
GI50 [14]: < 10 nM
GI50 [15]: 23 to 97 nM
pIC50 [16]: 4.92 to 5.84
GI50 [17]: 23 to 97 nM
pIC50 [18]: 5.00 to 6.00
GI50 [19]: 23 to 97 nM
GI50 [20]: < 10 nM
pIC50 [21]: 5.00 to 6.00
pIC50 [22]: 6.37 to 7.10
pIC50 [23]: 5.33 to 6.26
pIC50 [24]: 4.92 to 5.84
pIC50 [25]: 5.00 to 6.26
GI50 [26]: < 10 nM
pIC50 [27]: 6.37 to 7.10
pIC50 [28]: 4.92 to 5.84
pIC50 [29]: 5.33 to 6.26
GI50 [30]: < 10 nM

Compound: COc1cc2nc(Cl)nc(Nc3ccc(Cn4cc(-c5ccccc5)nn4)cc3)c2cc1OC
pIC50 [36]: 4.34
pIC50 [37]: 4.17 to 4.68
pIC50 [38]: 4.43
pIC50 [39]: 4.17 to 4.68
pIC50 [16]: 4.17 to 4.68
pIC50 [40]: 4.39
pIC50 [41]: 4.17 to 4.68

Compound: O=C1C=C(n2cc(-c3ccccc3)nn2)C(=O)c2ccccc21
pIC50 [9]: 4.00 to 4.84
pIC50 [38]: 4.00 to 4.84
pIC50 [42]: 4.00 to 4.84
pIC50 [43]: 4.00 to 4.84

The next lines start with results.

pIC50 [31]: 5.08 to 5.62
pIC50 [12]: 5.08 to 5.62
pIC50 [33]: 5.08 to 5.62
pIC50 ([22]; read-out: IC50): 5.08 to 5.62
pIC50 [34]: 5.08 to 5.62
pIC50 [35]: 5.08 to 5.62
Compound: CCc1ccc(-c2cn([C@H]3C[C@H]4[C@@H]5CCc6cc(OCc7ccccc7)ccc6[C@H]5CC[C@@]4(C)[C@@H]3O)nn2)cc1
pIC50 [32]: 5.08 to 5.62

pIC50 [31]: 5.08 to 5.62
pIC50 [12]: 5.08 to 5.62
pIC50 [33]: 5.08 to 5.62
pIC50 ([22]; read-out: IC50): 5.08 to 5.62
pIC50 [34]: 5.08 to 5.62
pIC50 [35]: 5.08 to 5.62
Compound: CC(C)(C)c1ccc(-c2cn([C@H]3C[C@H]4[C@@H]5CCc6cc(OCc7ccccc7)ccc6[C@H]5CC[C@@]4(C)[C@@H]3O)nn2)cc1
pIC50 [32]: 5.08 to 5.62
